In patent publication US10293014B2, “Immune stimulating composition comprising an extract of Aronia sp. in combination with selenium and/or zinc” (Ursapharm Arzneimittel GmbH, priority 2009, dated 2019):

Test system: macrophages of the mouse leukaemic monocyte macrophage cell line RAW 264.7
Test: Chemiluminescence assay of macrophage activity (lucigenine, zymosan)
Assay type: cell-based
Conditions: selenium alone, RAW 264.7, FIG. 3
Experimental: Cells: Cell line (RAW 264.7, murine macrophages) was purchased from the America Type Culture Collection and cultivated as recommended.
Chemiluminescence Assay: Lucigenine (Sigma Chemicals Co.) was dissolved in Hank's Balanced Salt Solution (HBSS; Gibco Co.) at a concentration of 2×10^−3 M. This stock solution was further diluted in HBSS prior to use. 1 ml cells (5×10^6 cells/ml) were incubated with 0.1 ml solution of Aronia extract and Aronia extract together with sodium selenite (dosis kinetics for each component and the combinations as documented in the figures). All these constituents were kept in an incubator (37° C., 5% CO2) for 30 min, then centrifuged at 1200 U/min for 5 min and resuspended in minimal essential medium (MEM, Gibco Co.).
The reaction mixture consisted of a suspension (0.25 ml) at a concentration of 5×10^6 PMNL (polymorphonuclear leucocytes)/ml respectively monocytes/macrophages, 50 μl zymosan, and 0.45 ml medium containing 2×10^−6 M lucigenine. The reaction mixture was kept at 37° C. before chemoluminescence measurements were performed with a Luminometer (Luminoskan 1251, Labsystems) according to manufacturer's instructions (User's Manual 1995).

Question: With `O=[Se]([O-])[O-].[Na+].[Na+]` [selenium, sodium selenite] as the compound, how does the “concentrations that decrease macrophage activity” value read?
Answer: The value was greater than 8 µg/mL.
